According to patent US12343396B2, “Ultrasound mediated delivery of drugs” (EXACT THERAPEUTICS AS, priority 2013, dated 2025):
Converted amounts (≈) assume the structure as drawn. Read-outs that look alike come from different tables or passages of the source.

Assays:
physchem = conditions: for solubility: organic solvent or mixture; for Miscibility in tCIMe: solvents
Procedure: As a starting-point for the study on drug loading, a theoretical evaluation of solubility of different solutes (drugs and chromophores for optical imaging) in pFMCP and a range of other oil components was performed. This evaluation was performed using a state-of-the-art software for assessment of solvent-solute compatibility; Hansen solubility parameters, HSPiP v.4 (Steven Abbott TCNF Ltd.). The HSPIP analysis calculates three basic properties relating to compatibility between substances; Polarity, Dispersion and Hydrogen binding and a distance in this three dimensional space between e.g. a solvent and a solute; the Hansen distance (Hd). The closer the solvent and solute are in this space, the (relatively) better the solubility of the solute in the solvent. […] The miscibility between the solvent and the solubility of the solutes in one of the solvents were experimentally determined.
In addition, a 1:1:2 mixture of said three solvents loaded with Ptx was explored. […] C2 with a 1:1:1 mixture of these components was manufactured as detailed below.

[1] = cited from earlier work; for Log wsol (water solubility): logarithm of Molar solubility; for vapour pressure (v.p.): at 20° C.
[2] = Microscopy scoring of spontaneously and US activated bubbles; assay type: physicochemical; design: key: Score 0 = no or very limited; Score 1 = medium and; Score 2 = high; conditions: oil as C2 microdroplet phase mixed with C1, 37° C.; for Spont. Act. (amount of spontaneously activated bubbles): bubbles >~15 μm; for US Act. (amount of US activated bubbles): insonated 5 s, nominal MI 0.8, 2.25 MHz
Procedure: 641 mg distearoylphosphateidylcholine (DSPC) and 73 mg 1,2-distearoyl-3-(trimethylammonio) propane chloride (DSTAP) were weighed into a 250 mL round bottom flask and 50 ml chloroform was added. The sample was heated under hot tap water until a clear solution was obtained. The chloroform was removed by evaporation to dryness on a rotary evaporator at 350 mm Hg and 40° C., followed by further drying at 50 mm Hg in desiccator over night. Thereafter, 143 mL water was added and the flask again placed on a rotary evaporator and the lipids were rehydrated by full rotational speed and 80° C. water bath temperature for 25 minutes. The samples were placed in refrigerator over night. The lipid dispersion was transferred to a suitable vial and stored in refrigerator until use.
Emulsions were prepared by transferring aliquots of 1 mL of the cold lipid dispersion to 2 mL chromatography vials. To each of seven vials was added 100 μL of the fluorocarbon oils as detailed in Table 11. The chromatography vials were shaken on a CapMix (Espe, GmbH) for 75 seconds. The vials were immediately cooled in ice, pooled and kept cold until use. Coulter counter analysis was performed to determine the volume concentration of the microdroplets and the emulsions were then diluted with water to 10 μl/mL disperse phase.
C1 (as detailed in E1-2) was reconstituted in 2 mL of water and mixed together with the C2 samples prepared in a 10 ml tube to a ratio of 10:1 and shaken carefully by hand. The mixture was then diluted with 7 mL water. The samples were evaluated for spontaneously activated and US activated bubbles by microscopy in manual version of the methodology described in E1-4. One mL of this solution was transferred to a microscope cell where the temperature was stabilised to 37° C. after 2 minutes. The cell was set up so that US sonication, using an ATL 3-2 transducer with a center frequency of 2.25 MHZ, could be applied to the sample. At 200× magnification the entire cell area was scanned and the content of large (>˜15 μm), spontaneously activated bubbles was semi quantitatively assessed by visual inspection. For each sample, a score in the range of 0 to 2 was given, where 0 designate “no or very few large phase shift bubbles observed”, 1 designate “medium number of large phase shift bubbles observed” and 2 designate “large number of large phase shift bubbles observed”. The sample was then insonated for 5 s at a nominal MI of 0.8 and the content of large, US activated bubbles were counted and scored in the same manner. The results from this study is detailed in Table 11 together with the physicochemical characteristics of the compounds investigated.

Row | Molecule | Spont. Act. (amount of spontaneously activated bubbles) [2] | US Act. (amount of US activated bubbles) [2] | vapour pressure (v.p.) [1] | Log wsol (water solubility) [1] | further results
1 | CC(=O)O[C@@]12CO[C@@H]1C[C@H](O)[C@@]1(C)C(=O)[C@H](O)C3=C(C)[C@@H](OC(=O)[C@H](O)[C@@H](NC(=O)OC(C)(C)C)c4ccccc4)C[C@@](O)([C@@H](OC(=O)c4ccccc4)[C@H]21)C3(C)C [Docetaxel] | – | – | – | – | solubility (physchem; Solubility in tCIMe): ~20 mg/mL (≈ 24.8 mM)
2 | CC(=O)O[C@H]1C(=O)[C@@]2(C)[C@H]([C@H](OC(=O)c3ccccc3)[C@]3(O)C[C@H](OC(=O)[C@H](O)[C@@H](NC(=O)c4ccccc4)c4ccccc4)C(C)=C1C3(C)C)[C@]1(OC(C)=O)CO[C@@H]1C[C@@H]2O [Paclitaxel] | – | – | – | – | solubility in solvent mixture (physchem): > 50 mg/mL; solubility (physchem; Solubility in tCIMe): ~350 mg/mL (≈ 410 mM); solubility (physchem; solubility in solvent mixture): > 25 mg/mL
3 | COc1cccc2c1C(=O)c1c(O)c3c(c(O)c1C2=O)C[C@@](O)(C(=O)CO)C[C@@H]3O[C@H]1C[C@H](N)[C@H](O)[C@H](C)O1 [Doxorubicin] | – | – | – | – | solubility (physchem; trichloromethane (tClMe), Solubility in tCIMe, target molecules): ~1 mg/mL (≈ 1.84 mM)
4 | chlorotrifluoropropane [CltFPr] | – | – | – | – | miscibility in pFMCP, dClMe and tClMe (physchem): completely miscible; Miscibility in tCIMe (physchem): 100%; Log wsol (water solubility) ([1]; solvents): −2.4
5 | dichlorodifluoroethane [dCldFEt] | – | – | – | – | miscibility in pFMCP, dClMe and tClMe (physchem): completely miscible
6 | 1,1,2,3,3,3-Hexafluoropropyl methyl | 2 | 0 | 418.8 torr | −2.5 | –
7 | Methyl-1,1,2,2-tetrafluoroethyl ether | 2 | 0 | 842.4 torr | −1.4 | –
8 | FC(F)(F)C(F)(F)C(F)(F)C(F)(F)C(F)(F)C(F)(F)F [Perfluorohexane] | 0 | 1 | 359.2 torr | −6.7 | –
9 | CCN(CC)c1ccc2nc3c4ccccc4c(=O)cc-3oc2c1 [Nile Red] | – | – | – | – | solubility (physchem; Solubility in tCIMe): ~50 mg/mL (≈ 157 mM); solubility (physchem; solubility in solvent mixture): > 5 mg/mL
10 | FC(F)(F)C1(F)C(F)(F)C(F)(F)C(F)(F)C1(F)F [pFMCP, perfluoromethyl-cyclopentane] | 0 | 1 | – | – | Miscibility in tCIMe (physchem): ~10%
11 | FC(F)(F)C(F)(F)C(F)(F)C(F)(F)C(F)(F)C(F)(F)C(F)(F)F [Perfluoroheptane] | 0 | 2 | – | – | –
12 | Perfluorodimethylcyclobutane | 0 | 1 | 579 torr | −5.7 | –
13 | CCCCCCCCCCCCCCCCCCN1C(=CC=CC=CC=CC2=[N+](CCCCCCCCCCCCCCCCCC)c3ccccc3C2(C)C)C(C)(C)c2ccccc21.[I-] [DiR] | – | – | – | – | solubility in solvent mixture (physchem; 1:1:1 mixture of pFMCP, ClrFPr and pFMCP): > 10 mg/mL; Solubility in tCIMe (physchem; target molecules): ~50 mg/mL
14 | ClCCl [dCIMe, dichloromethane] | – | – | – | – | miscibility in pFMCP (physchem): ~10%; Miscibility in tCIMe (physchem): 100%; Log wsol (water solubility) ([1]; solvents): −0.8
15 | FC(F)C(F)(F)C(F)(F)C(F)(F)C(F)(F)C(F)(F)F [1H-perfluorohexane] | 1 | 1 | 238.6 torr | −5.3 | –
16 | CN(C)C/C=C/C(=O)Nc1cc2c(Nc3ccc(F)c(Cl)c3)ncnc2cc1O[C@H]1CCOC1 [Afatinib] | – | – | – | – | solubility (physchem; Solubility in tCIMe): ~100 mg/mL (≈ 206 mM)
17 | C=CC(F)(F)C(F)(F)C(F)(F)C(F)(F)F [1H, 1H,2H-perfluoro-1-hexene] | 1 | 1 | 353.1 torr | −4.6 | –
18 | CCS(=O)(=O)Nc1ccc2c(c1)/C(=C(/Nc1ccc(CN3CCCCC3)cc1)c1ccccc1)C(=O)N2 [Hesperadin] | – | – | – | – | solubility (physchem; Solubility in tCIMe): ~7.5 mg/mL (≈ 14.5 mM)
19 | FC(C(F)C(F)(F)C(F)(F)F)C(F)(F)F (stereo not shown) [2H,3H-perfluoropentane] | 1 | 0 | 431.8 torr | −3.2 | –
20 | 2,2,3,3,3-Pentafluoropropyl methyl | 1 | 0 | 559.6 torr | −2.0 | –
